Calls of active or inactive are those of the source. The rule behind the calls is not given here.
Legend:
[1] = tested on: HT-29; test: Inhibition of colony formation in human HT-29 cells at 0.75 uM incubated for 14 days by crystal violet staining based colony formation assay; assay type: functional, cell-based; conditions: time 14.0 day
[2] = tested on: LoVo; test: Inhibition of colony formation in human LoVo cells at 0.75 uM incubated for 14 days by crystal violet staining based colony formation assay; assay type: functional, cell-based; conditions: time 14.0 day
[3] = tested on: DLD-1; test: Inhibition of colony formation in human DLD-1 cells at 0.75 uM incubated for 14 days by crystal violet staining based colony formation assay; assay type: functional, cell-based; conditions: time 14.0 day
[4] = Toxicity in human HT-29 cells xenografted Balb/c mouse assessed as change in body weight at 2.5 mg/kg/day, ip administrated for every other day and measured after 6 days; assay type: organism-based; conditions: in vivo, 144 h, time 6 day
[5] = tested on: HT-29; test: Antitumor activity against human HT-29 cells xenografted Balb/c mouse assessed as reduction in tumor cell density at 2.5 mg/kg/day, ip administrated for every other day and measured after 28 days by Hematoxylin and Eosin staining based method; assay type: functional, organism-based; conditions: time 28.0 day
[6] = tested on: HT-29; test: Antitumor activity against human HT-29 cells xenografted Balb/c mouse assessed as reduction in Ki67 expression level at 2.5 mg/kg/day, ip administrated for every other day and measured after 28 days by immunohistochemistry staining method; assay type: functional, organism-based; conditions: time 28.0 day
[7] = Toxicity in human HT-29 cells xenografted Balb/c mouse assessed as change in liver pathology at 2.5 mg/kg/day, ip administrated for every other day and measured after 28 days; assay type: organism-based; conditions: in vivo, 672 h, time 28 day
[8] = Toxicity in human HT-29 cells xenografted Balb/c mouse assessed as change in kidney pathology at 2.5 mg/kg/day, ip administrated for every other day and measured after 28 days; assay type: organism-based; conditions: in vivo, 672 h, time 28 day
[9] = tested on: HT-29; test: Inhibition of colony formation in EGFR knockdown human HT-29 cells at 0.75 uM incubated for 14 days by crystal violet staining based colony formation assay; assay type: functional, cell-based; conditions: time 14.0 day
[10] = tested on: HT-29; test: Inhibition of colony formation in double EGFR/HER2 knockdown human HT-29 cells at 0.75 uM incubated for 14 days by crystal violet staining based colony formation assay; assay type: functional, cell-based; conditions: time 14.0 day
[11] = tested on: SW480; test: Inhibition of colony formation in double EGFR/HER2 knockdown human SW480 cells at 0.75 uM incubated for 14 days by crystal violet staining based colony formation assay; assay type: functional, cell-based; conditions: time 14.0 day
[12] = tested on: HT-29; test: Inhibition of EGFR in human HT-29 cells xenografted in BALB/c nude mouse assessed as reduction in EGFR protein expression level at 2.5 mg/kg/day, ip administrated for every other day and measured after 28 days by immunohistochemistry staining based analysis; assay type: functional, organism-based; conditions: time 28.0 day
[13] = biological target: Receptor tyrosine-protein kinase erbB-2 (Homo sapiens) (UniProt P04626); test: Inhibition of HER2 in human HT-29 cells at 2 uM by Western blotting analysis; assay type: cell-based; conditions: time 3-15 hrs, TDE = time-dependent effect
Chain of Receptor tyrosine-protein kinase erbB-2 (Homo sapiens) (P04626 whole entry): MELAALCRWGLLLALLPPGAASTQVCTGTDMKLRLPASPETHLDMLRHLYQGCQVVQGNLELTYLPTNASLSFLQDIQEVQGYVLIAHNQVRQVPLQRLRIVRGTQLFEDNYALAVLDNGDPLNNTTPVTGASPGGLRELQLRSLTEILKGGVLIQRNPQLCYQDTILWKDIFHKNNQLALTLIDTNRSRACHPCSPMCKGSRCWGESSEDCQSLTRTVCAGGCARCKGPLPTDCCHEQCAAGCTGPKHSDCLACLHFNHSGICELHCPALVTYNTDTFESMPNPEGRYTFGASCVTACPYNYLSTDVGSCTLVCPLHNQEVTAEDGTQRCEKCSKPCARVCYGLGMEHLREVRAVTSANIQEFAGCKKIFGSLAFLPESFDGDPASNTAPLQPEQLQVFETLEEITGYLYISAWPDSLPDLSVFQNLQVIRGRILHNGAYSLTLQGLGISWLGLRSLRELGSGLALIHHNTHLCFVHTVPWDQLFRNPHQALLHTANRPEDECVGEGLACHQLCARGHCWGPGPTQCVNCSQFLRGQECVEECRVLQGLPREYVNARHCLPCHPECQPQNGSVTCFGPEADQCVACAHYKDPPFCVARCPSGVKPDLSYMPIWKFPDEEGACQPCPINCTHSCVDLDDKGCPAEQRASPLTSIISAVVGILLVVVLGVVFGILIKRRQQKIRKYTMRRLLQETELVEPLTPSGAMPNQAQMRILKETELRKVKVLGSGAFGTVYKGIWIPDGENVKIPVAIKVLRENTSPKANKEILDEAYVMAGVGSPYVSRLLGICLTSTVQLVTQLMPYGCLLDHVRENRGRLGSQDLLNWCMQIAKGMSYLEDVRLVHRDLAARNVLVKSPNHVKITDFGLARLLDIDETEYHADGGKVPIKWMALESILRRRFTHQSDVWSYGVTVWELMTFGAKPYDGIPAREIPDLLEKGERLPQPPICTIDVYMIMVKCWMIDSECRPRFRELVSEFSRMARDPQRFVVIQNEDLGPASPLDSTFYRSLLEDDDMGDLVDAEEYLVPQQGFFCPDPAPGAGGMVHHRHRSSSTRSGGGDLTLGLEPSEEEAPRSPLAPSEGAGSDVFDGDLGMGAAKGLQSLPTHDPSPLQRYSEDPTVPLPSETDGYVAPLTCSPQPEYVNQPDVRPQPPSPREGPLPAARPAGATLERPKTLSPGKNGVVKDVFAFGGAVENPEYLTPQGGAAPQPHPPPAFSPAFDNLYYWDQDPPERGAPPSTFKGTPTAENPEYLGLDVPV

[14] = biological target: Epidermal growth factor receptor (Homo sapiens) (UniProt P00533); test: Inhibition of EGFR in human HT-29 cells assessed as reduction in MEK1/2 phosphorylation level at 2 uM by Western blotting analysis; assay type: cell-based; conditions: time 3-15 hrs, TDE = time-dependent effect
Chain of Epidermal growth factor receptor (Homo sapiens) (P00533 whole entry): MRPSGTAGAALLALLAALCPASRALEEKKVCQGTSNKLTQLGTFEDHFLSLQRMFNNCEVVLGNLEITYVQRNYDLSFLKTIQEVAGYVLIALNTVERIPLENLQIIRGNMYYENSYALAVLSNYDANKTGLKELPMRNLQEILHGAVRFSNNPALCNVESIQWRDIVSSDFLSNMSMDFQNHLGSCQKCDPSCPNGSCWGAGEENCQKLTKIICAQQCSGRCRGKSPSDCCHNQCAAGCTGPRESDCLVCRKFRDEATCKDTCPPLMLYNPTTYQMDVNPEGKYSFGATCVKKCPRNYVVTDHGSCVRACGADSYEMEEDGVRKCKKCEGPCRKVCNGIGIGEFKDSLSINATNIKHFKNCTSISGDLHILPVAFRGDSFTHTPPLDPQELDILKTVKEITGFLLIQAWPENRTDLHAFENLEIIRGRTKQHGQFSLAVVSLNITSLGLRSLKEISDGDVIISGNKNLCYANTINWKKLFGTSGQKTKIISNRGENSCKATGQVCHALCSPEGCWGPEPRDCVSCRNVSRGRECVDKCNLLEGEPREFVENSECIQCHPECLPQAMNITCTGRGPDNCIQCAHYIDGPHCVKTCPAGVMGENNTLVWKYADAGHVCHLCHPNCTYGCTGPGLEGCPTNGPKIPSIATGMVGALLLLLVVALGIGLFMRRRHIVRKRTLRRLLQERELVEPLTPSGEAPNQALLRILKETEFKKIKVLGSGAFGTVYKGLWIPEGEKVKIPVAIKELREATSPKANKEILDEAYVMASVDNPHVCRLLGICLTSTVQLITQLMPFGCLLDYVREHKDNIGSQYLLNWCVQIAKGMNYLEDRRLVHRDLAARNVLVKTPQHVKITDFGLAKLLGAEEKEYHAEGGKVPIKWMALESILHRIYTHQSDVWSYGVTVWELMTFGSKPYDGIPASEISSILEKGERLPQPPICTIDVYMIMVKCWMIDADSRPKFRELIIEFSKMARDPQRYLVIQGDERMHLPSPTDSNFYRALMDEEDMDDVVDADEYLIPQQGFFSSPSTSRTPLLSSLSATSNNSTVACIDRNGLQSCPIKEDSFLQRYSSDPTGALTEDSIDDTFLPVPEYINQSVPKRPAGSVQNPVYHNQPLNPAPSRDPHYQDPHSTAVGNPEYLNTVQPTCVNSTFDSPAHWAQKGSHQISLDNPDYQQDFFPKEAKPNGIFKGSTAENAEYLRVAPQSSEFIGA

[15] = biological target: Epidermal growth factor receptor (Homo sapiens) (UniProt P00533); test: Inhibition of EGFR in human HT-29 cells assessed as reduction in STAT3 phosphorylation level at 2 uM by Western blotting analysis; assay type: cell-based; conditions: time 3-15 hrs, TDE = time-dependent effect
[16] = biological target: Epidermal growth factor receptor (Homo sapiens) (UniProt P00533); test: Inhibition of EGFR in human HT-29 cells assessed as reduction in ratio of p-EGFR/EGFR level at 2 uM measured after 3 to 15 hrs by Western blot analysis; assay type: cell-based; conditions: time 3-15 hrs
[17] = biological target: Epidermal growth factor receptor (Homo sapiens) (UniProt P00533); test: Inhibition of EGFR in human HT-29 cells assessed as reduction in MEK1/2 phosphorylation level at 0.5 to 2 uM incubated for 24 hrs by Western blotting analysis; assay type: cell-based; conditions: dose 0.5-2 µM
[18] = biological target: Epidermal growth factor receptor (Homo sapiens) (UniProt P00533); test: Inhibition of EGFR in human HT-29 cells assessed as reduction in STAT3 phosphorylation level at 0.5 to 2 uM incubated for 24 hrs by Western blot analysis; assay type: cell-based; conditions: dose 0.5-2 µM
[19] = biological target: Epidermal growth factor receptor (Homo sapiens) (UniProt P00533); test: Inhibition of EGFR in human SW480 cells assessed as reduction in MEK1/2 phosphorylation level at 0.5 to 2 uM incubated for 24 hrs by Western blotting analysis; assay type: cell-based; conditions: dose 0.5-2 µM
[20] = biological target: Epidermal growth factor receptor (Homo sapiens) (UniProt P00533); test: Inhibition of EGFR in human HT-29 cells assessed as reduction in MEK1/2 phosphorylation level at 3.75 to 15 uM incubated for 24 hrs by Western blotting analysis; assay type: cell-based; conditions: dose 3.75-15 µM
[21] = tested on: HT-29; test: Inhibition of colony formation in human HT-29 cells at 6 uM incubated for 14 days by crystal violet staining based colony formation assay; assay type: functional, cell-based; conditions: time 14.0 day
[22] = tested on: HCT-116; test: Inhibition of colony formation in human HCT-116 cells at 6 uM incubated for 14 days by crystal violet staining based colony formation assay; assay type: functional, cell-based; conditions: time 14.0 day
[23] = tested on: LoVo; test: Inhibition of colony formation in human LoVo cells at 6 uM incubated for 14 days by crystal violet staining based colony formation assay; assay type: functional, cell-based; conditions: time 14.0 day
[24] = tested on: HT-29; test: Antitumor activity against human HT-29 cells xenografted Balb/c mouse assessed as reduction in tumor growth at 5 mg/kg/day, ip administrated for every other day and measured after 28 days; assay type: functional, organism-based; conditions: time 28.0 day
[25] = tested on: HT-29; test: Antitumor activity against human HT-29 cells xenografted Balb/c mouse assessed as reduction in Ki67 expression level at 5 mg/kg/day, ip administrated for every other day and measured after 28 days by immunohistochemistry staining method; assay type: functional, organism-based; conditions: time 28.0 day
[26] = Toxicity in human HT-29 cells xenografted Balb/c mouse assessed as change in lung pathology at 5 mg/kg/day, ip administrated for every other day and measured after 28 days; assay type: organism-based; conditions: in vivo, 672 h, time 28 day
[27] = tested on: HT-29; test: Inhibition of colony formation in EGFR knockdown human HT-29 cells at 6 uM incubated for 14 days by crystal violet staining based colony formation assay; assay type: functional, cell-based; conditions: time 14.0 day
[28] = tested on: SW480; test: Inhibition of colony formation in EGFR knockdown human SW480 cells at 6 uM incubated for 14 days by crystal violet staining based colony formation assay; assay type: functional, cell-based; conditions: time 14.0 day
[29] = biological target: Epidermal growth factor receptor (Homo sapiens) (UniProt P00533); test: Inhibition of EGFR in human SW480 cells assessed as reduction in Erk1/2 phosphorylation level at 3.75 to 15 uM incubated for 24 hrs by Western blot analysis; assay type: cell-based; conditions: dose 3.75-15 µM
[30] = biological target: Epidermal growth factor receptor (Homo sapiens) (UniProt P00533); test: Inhibition of EGFR in human SW480 cells assessed as reduction in STAT3 phosphorylation level at 3.75 to 15 uM incubated for 24 hrs by Western blot analysis; assay type: cell-based; conditions: dose 3.75-15 µM
[31] = tested on: HT-29; test: Inhibition of HER2 in human HT-29 cells xenografted in BALB/c nude mouse assessed as reduction in HER2 protein expression level at 5 mg/kg/day, ip administrated for every other day and measured after 28 days by immunohistochemistry staining based analysis; assay type: functional, organism-based; conditions: time 28.0 day
[32] = biological target: Epidermal growth factor receptor (Homo sapiens) (UniProt P00533); test: Inhibition of EGFR in human HT-29 cells at 15 uM by Western blot analysis; assay type: cell-based; conditions: time 3-15 hrs, TDE = time-dependent effect
[33] = biological target: Receptor tyrosine-protein kinase erbB-2 (Homo sapiens) (UniProt P04626); test: Inhibition of HER2 in human HT-29 cells at 15 uM by Western blot analysis; assay type: cell-based; conditions: time 3-15 hrs, TDE = time-dependent effect
[34] = biological target: Epidermal growth factor receptor (Homo sapiens) (UniProt P00533); test: Inhibition of EGFR in human HT-29 cells assessed as reduction in MEK1/2 phosphorylation level at 15 uM by Western blot analysis; assay type: cell-based; conditions: time 3-15 hrs, TDE = time-dependent effect
[35] = biological target: Epidermal growth factor receptor (Homo sapiens) (UniProt P00533); test: Inhibition of EGFR in human HT-29 cells assessed as reduction in Erk1/2 phosphorylation level at 15 uM by Western blot analysis; assay type: cell-based; conditions: time 3-15 hrs, TDE = time-dependent effect
[36] = biological target: Epidermal growth factor receptor (Homo sapiens) (UniProt P00533); test: Inhibition of EGFR in human HT-29 cells assessed as reduction in STAT3 phosphorylation level at 15 uM by Western blot analysis; assay type: cell-based; conditions: time 3-15 hrs, TDE = time-dependent effect

CC[C@H]1CCC[C@H](O[C@H]2CC[C@H](N(C)CC(O)CN3CCNCC3)[C@@H](C)O2)[C@@H](C)C(=O)C2=C[C@@H]3[C@@H](C=C[C@@H]4C[C@@H](O[C@@H]5O[C@@H](C)[C@H](OC)[C@@H](OC)[C@H]5OC)C[C@@H]34)[C@@H]2CC(=O)O1 (stereo partly specified)
inhibition [1]: Active
inhibition [2]: Active
inhibition [3]: Active
Activity [4]: Non-Toxic
Activity [5]: Active
Activity [6]: Active
Activity [7]: Non-Toxic
Activity [8]: Non-Toxic
Activity [9]: inactive
Activity [10]: inactive
Activity [11]: inactive
inhibition [12]: Active
inhibition [13]: Tde
inhibition [14]: Tde
inhibition [15]: Tde
inhibition [16]: Active
inhibition [17]: Active
inhibition [18]: Active
inhibition [19]: Active

CC[C@H]1CCC[C@H](O[C@H]2CC[C@H](N(C)C)[C@@H](C)O2)[C@@H](C)C(=O)C2=C[C@@H]3[C@@H](C=C[C@@H]4C[C@@H](O[C@@H]5O[C@@H](C)[C@H](OC)[C@@H](OC)[C@H]5OC)C[C@@H]34)[C@@H]2CC(=O)O1 [SPINOSYN A]
inhibition [20]: Active
inhibition [21]: Active
inhibition [22]: Active
inhibition [23]: Active
Activity [24]: Active
Activity [25]: Active
Activity [26]: Non-Toxic
Activity [27]: inactive
Activity [28]: Active
inhibition [29]: Active
inhibition [30]: Active
inhibition [31]: Active
inhibition [32]: Tde
inhibition [33]: Tde
inhibition [34]: Tde
inhibition [35]: Tde
inhibition [36]: Tde
